{
  "source": "paper PMC9890698",
  "about": "(BMC Biology, 2023)",
  "key": {"washed human platelets": {"system": "washed human platelets", "conditions": "TRAP stimulation, result in words", "description": "For platelet dense granule secretion, washed human platelets were stimulated with 50 μM TRAP (10 min, 37 °C) and stained with conjugated anti-CD63 FITC-conjugated antibody (BD Biosciences reference 557288. 1:5) for 15 min at room temperature. The platelets were then diluted into 1 mL PBS and samples were then kept in the dark until analysis by flow cytometry. The results are expressed as median fluorescence intensity (MFI)."}, "Human P2Y1-R": {"molecular_target": "T1, Human P2Y1-R (Homo sapiens, UniProt P47900)", "T1 construct": "expressed in transfected cells; host or cells: HEK293T/17", "T1 sequence (P47900 whole entry)": "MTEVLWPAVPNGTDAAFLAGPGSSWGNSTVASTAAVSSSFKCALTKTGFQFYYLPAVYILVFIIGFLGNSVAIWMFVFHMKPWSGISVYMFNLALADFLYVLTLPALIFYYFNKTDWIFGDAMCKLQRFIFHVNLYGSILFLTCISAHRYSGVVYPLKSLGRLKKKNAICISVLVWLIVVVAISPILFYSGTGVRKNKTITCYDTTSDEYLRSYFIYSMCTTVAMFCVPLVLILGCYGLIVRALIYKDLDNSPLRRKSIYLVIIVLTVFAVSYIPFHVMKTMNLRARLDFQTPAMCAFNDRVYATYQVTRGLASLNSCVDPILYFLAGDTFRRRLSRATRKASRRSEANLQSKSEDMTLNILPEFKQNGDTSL", "assay": "IP1 accumulation assay (HTRF) in HEK293T cells expressing P2Y1-R", "type": "cell-based", "conditions": "ADP 100 μM, MRS2179 10 μM, Gq inhibitor 100 nM, 2 h, result in words"}, "HEK293T cells (pcDNA3.1)": {"system": "HEK293T cells (pcDNA3.1)", "assay": "IP1 accumulation assay (HTRF) in control HEK293T cells (pcDNA3.1)", "type": "cell-based, Human", "conditions": "pcDNA3.1, Gq inhibitor 100 nM, 2 h", "text": "Since Gαq protein activation is known to induce PLC activation leading to IP3 and subsequent cytosolic calcium release, we analyzed the constitutive Gαq-dependent P2Y1-R signaling by quantifying intracellular inositol monophosphate (IP1) using a monoclonal antibody-based competitive ELISA. IP1 is a downstream metabolite of IP3 that accumulates in cells following Gαq protein-coupled receptor activation, making it an ideal readout for Gαq protein-dependent signaling pathways.\n(§1) Quantification of intracellular IP1 was performed using the HTRF (Homogeneous Time Resolved Fluorescence) IP1 competitive immunoassay (IP-One Tb kit. Cisbio. France) according to the manufacturer’s instructions. Briefly, 20,000 HEK293T/17 cells or 3.10^6 platelets were distributed in a 384-well white microplate (Greiner) and incubated with the indicated molecules for 30 min or 2 h at 37 °C in the presence of 50 mM of LiCl to prevent IP1 degradation. After addition of d2-labeled IP1 (acceptor) and anti-IP1-Cryptate (donor) for 1 h, the specific FRET signals were calculated by the fluorescence ratio of the acceptor and donor emission signal (665/620 nm) collected using a modified Infinite F500 (Tecan Group Ltd). Conversion of the HTRF ratio of each sample into IP1 concentrations was performed on the basis of a standard curve to determine the linear dynamic range of the assay."}, "[1]": {"system": "washed murine platelets (P2Y1-R/Gαq signaling)", "assay": "IP1 accumulation assay (HTRF) in washed murine platelets", "type": "cell-based, mouse", "conditions": "Gq inhibitor 100 nM, 2 h", "description": "(§2) As performed in HEK293T cells, we thus quantified intracellular IP1 levels to monitor Gαq protein-dependent signaling pathways.\nPlatelet-rich plasma (PRP) was obtained by mixing blood with 1 volume of modified Hepes Tyrode’s buffer (137 mM NaCl, 2 mM KCl, 12 mM NaHCO3, 0.3 mM NaH2PO4, 1 mM MgCl2, 2 mM CaCl2, 5.5 mM glucose, 5 mM HEPES, and 0.35% (w/v) BSA, pH 6.7) followed by a centrifugation at 150 g for 2 min at 37 °C. Then, platelets were pelleted by centrifugation at 1000 g for 4 min, resuspended in modified Hepes Tyrode’s buffer (pH 7.4), adjusted to 3.10^8 platelets/mL in the presence of 0.02 U/mL of apyrase and 10 μM indomethacin and rested for 45 minutes at 37°C before platelet stimulation. PGI2 (0.5 μM) was added before centrifugation steps to avoid platelet activation.\nas §1"}, "[2]": {"system": "washed human platelets (P2Y1-R/Gαq signaling)", "assay": "IP1 accumulation assay (HTRF) in washed human platelets", "type": "cell-based", "conditions": "Gq inhibitor 100 nM, 2 h", "description": "as §2\nHuman platelets were prepared from adult healthy volunteers free of antiplatelet or anti-inflammatory medication since at least ten days. […] After two steps of centrifugation and suspension in Tyrode’s buffer (140 mM NaCl, 5 mM KCl, 5 mM KH2PO4, 1 mM MgSO4, 10 mM HEPES, 5 mM glucose and 0.35% (w/v) BSA, pH 6,7), washed platelets were suspended in the same buffer adjusted to pH 7.4 and containing 1 mM CaCl2. The final platelet suspension was adjusted to 3.10^8 platelets/mL and rested for 45 min in the presence of 0.02 U/mL apyrase and 10 μM indomethacin at 37 °C prior experiments. PGI2 (0.5 μM) was added before centrifugation steps to avoid platelet activation.\nas §1"}, "P2Y12-R": {"system": "P2Y12-R", "conditions": "result in words; cited from earlier work"}},
  "note": "Where “and” joins values, the source holds several entries; their conditions need not be identical. Equal entries are not always repeated. *1 amine or outer side, *2 acyl side, *3 side chain or, on linkers, in order; H or OH if unused. Where a SMILES comes first, the peptide text is derived from it. Bridges are numbered along the chain shown (N, C = ends). [ ]: non-standard residue; d: D form. The star is where a group is joined. Leu(3R-OH,Nα-propionyl) = CCC(=O)N[C@H](C(=O)*)[C@H](O)C(C)C; X1 = CC(C)[C@@H](O[*:3])[C@H](N[*:1])C(=O)[*:2]; NMeT = CN[C@H](C(=O)O)[C@@H](C)O; dPhLac = O=C(O)[C@H](O)Cc1ccccc1; NMeA = CN[C@@H](C)C(=O)O; NMeDha = C=C(NC)C(=O)O",
  "data": [
    {"compound": "thrombin receptor activating peptide [TRAP]", "values": [
      {"measurement": "CD63 exposure at the platelet surface", "setting": "washed human platelets", "result": "strong exposure of CD63"}
    ]},
    {"compound": "C=C1C(=O)N[C@@H](C)C(=O)N(C)[C@@H](C)C(=O)N[C@@H]([C@H](OC(=O)[C@@H](NC(=O)CC)[C@H](O)C(C)C)C(C)C)C(=O)N(C)[C@@H]([C@@H](C)OC)C(=O)O[C@H](C(C)C)[C@H](NC(C)=O)C(=O)O[C@H](Cc2ccccc2)C(=O)N1C", "note": "[FR900359] (Ac-[X1][dPhLac][NMeDha]A[NMeA][X1](Leu(3R-OH,Nα-propionyl))[NMeT](Me); ester 1-C)", "values": [
      {"measurement": "Effect on IP1 production", "setting": "Human P2Y1-R", "result": "significantly reduced"},
      {"measurement": "IP1 concentration", "setting": "HEK293T cells (pcDNA3.1)", "result": "132.385 nM and 158.041 nM and 95.7319 nM and 85.9635 nM and 143.254 nM"},
      {"measurement": "IP1 concentration (% matched basal values)", "setting": "[1]; murine platelets, individual mice", "result": "27.5986 % matched basal values and 38.7127 % matched basal values and 47.9185 % matched basal values and 40.8858 % matched basal values and 59.9249 % matched basal values and 76.9346 % matched basal values and 9.098 % matched basal values and 14.2482 % matched basal values and 23.5315 % matched basal values and 11.8913 % matched basal values and 61.9938 % matched basal values and 36.9021 % matched basal values and 16.0009 % matched basal values"},
      {"measurement": "Effect on IP1 levels", "setting": "[1]; washed murine platelets, ADP 100 μM, MRS2179 10 μM, apyrase 0.02 U/mL, result in words", "result": "inhibited"},
      {"measurement": "IP1 concentration (% matched basal values)", "setting": "[2]; human platelets, individual donors", "result": "19.0758 % matched basal values and 11.9666 % matched basal values and 43.5394 % matched basal values and 60.8621 % matched basal values and 37.3209 % matched basal values and 49.8124 % matched basal values and 75.4834 % matched basal values and 64.9734 % matched basal values and 85.7248 % matched basal values and 88.8134 % matched basal values and 81.06 % matched basal values and 83.4552 % matched basal values and 77.0271 % matched basal values and 36.4555 % matched basal values and 43.6521 % matched basal values and 9.5459 % matched basal values"},
      {"measurement": "Effect on IP1 levels", "setting": "[2]; washed human platelets, ADP 100 μM, antagonists 10 μM, apyrase 0.02 U/mL, result in words", "result": "inhibited"}
    ]},
    {"compound": "CCCSc1nc(N[C@@H]2C[C@H]2c2ccc(F)c(F)c2)c2nnn([C@@H]3C[C@H](OCCO)[C@@H](O)[C@H]3O)c2n1", "note": "[ticagrelor]", "values": [
      {"measurement": "Behaviour at P2Y12-R constitutive signaling", "setting": "P2Y12-R", "result": "inverse agonists"}
    ]},
    {"compound": "CCCCOC(=O)N1CCN(C(=O)[C@H](CP(=O)(O)O)NC(=O)c2cc(N3CC[C@H](OC)C3)nc(-c3ccccc3)n2)CC1", "note": "[selatogrel]", "values": [
      {"measurement": "Behaviour at P2Y12-R constitutive signaling", "setting": "P2Y12-R", "result": "inverse agonists"}
    ]},
    {"compound": "CSCCNc1nc(SCCC(F)(F)F)nc2c1ncn2[C@@H]1O[C@H](COP(=O)(O)OP(=O)(O)C(Cl)(Cl)P(=O)(O)O)[C@@H](O)[C@H]1O", "note": "[cangrelor]", "values": [
      {"measurement": "Behaviour at P2Y12-R constitutive signaling", "setting": "P2Y12-R", "result": "inverse agonists"}
    ]}
  ]
}
